Here are results for five compounds from patent US20070265261A1, “Dpp-IV Inhibitors” (priority 2004, published 2007).

The target of this experiment is T1, DPP-IV (Homo sapiens, UniProt P27487).
T1 construct: Soluble human DPP-IV lacking the transmembrane anchor (Gly31-Pro766); Pre-Pro-alpha-mating factor leader (secretion signal) (N, cleaved yes); made in house
Kind of experiment: Inhibition of DPP-IV peptidase activity, continuous fluorimetric assay (cleavage of Gly-Pro-AMC). Further: 16 µM Gly-Pro-AMC. The format is biochemical. The method, then: Inhibition of DPP-IV peptidase activity was monitored with a continuous fluorimetric assay. This assay is based on the cleavage of the substrate Gly-Pro-AMC (Bachem) by DPP-IV, releasing free AMC. The assay is carried out in 96-well microtiter plates. In a total volume of 100 μL, compounds are preincubated with […] DPP-IV employing a buffer containing 10 mM Hepes, 150 mM NaCl, 0.005% Tween 20 (pH 7.4). […] The final concentration of DMSO is 1%. The inhibitory potential of the compounds were determined.
Soluble human DPP-IV lacking the transmembrane anchor (Gly31-Pro766) was expressed in a recombinant YEAST-strain as Pre-Pro-alpha-mating fusion. The secreted product (rhuDPP-IV-Gly31-Pro766) was purified from fermentation broth (>90% purity).

T1 sequence (P27487 31-766): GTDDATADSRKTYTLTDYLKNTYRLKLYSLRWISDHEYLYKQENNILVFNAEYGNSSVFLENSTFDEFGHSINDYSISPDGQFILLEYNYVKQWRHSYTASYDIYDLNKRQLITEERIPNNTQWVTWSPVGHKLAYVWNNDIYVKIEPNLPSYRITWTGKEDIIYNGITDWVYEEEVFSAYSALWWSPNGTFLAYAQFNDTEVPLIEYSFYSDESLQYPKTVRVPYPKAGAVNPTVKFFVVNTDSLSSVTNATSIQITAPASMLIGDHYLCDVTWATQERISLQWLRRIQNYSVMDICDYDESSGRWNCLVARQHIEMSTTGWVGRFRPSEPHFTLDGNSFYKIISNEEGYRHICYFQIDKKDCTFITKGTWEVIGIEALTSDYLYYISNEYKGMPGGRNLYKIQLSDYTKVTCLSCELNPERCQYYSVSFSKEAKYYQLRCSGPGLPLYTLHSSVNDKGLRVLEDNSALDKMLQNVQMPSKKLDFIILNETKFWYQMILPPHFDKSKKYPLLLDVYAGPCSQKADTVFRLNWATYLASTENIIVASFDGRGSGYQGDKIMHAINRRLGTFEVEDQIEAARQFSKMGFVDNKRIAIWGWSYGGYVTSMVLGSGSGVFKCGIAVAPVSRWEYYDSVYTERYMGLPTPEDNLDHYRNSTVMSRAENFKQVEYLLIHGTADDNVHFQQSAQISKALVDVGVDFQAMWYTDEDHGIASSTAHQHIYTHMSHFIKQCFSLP

As a reminder, the IC50 is the concentration that gives 50% inhibition. High values mean weaker potency, low ones greater potency. `CS(=O)(=O)Nc1cccc(C(=O)N2CCC(C(N)Cc3cccc(Cl)c3)CC2)c1` (centres unmarked) [Example 72, N-(3-{4-[1-Amino-2-(3-chloro-phenyl)-ethyl]-piperidine-1-carbonyl}-phenyl)-methane-sulphonamide] displayed an IC50 below 0.1 µM.

Turning to `NC(Cc1cccc(Cl)c1)C1CCN(c2ncccn2)CC1` (centres unmarked) [Example 73], the IC50 was in the range of 0.101 to 1 µM.

As for `NC(Cc1cc(F)ccc1F)C1CCN(C(=O)N2CCC(F)(F)C2)CC1` (centres unmarked) [Example 74, {4-[1-Amino-2-(2 5-difluoro-phenyl)-ethyl]-piperidin-1-yl}-(3,3-difluoro-pyrrolidin-1-yl)-methanone], the 50% inhibitory concentration (IC50) was below 0.1 µM. As for `NC(Cc1cccc(Cl)c1)C1CCN(C(=O)N2CCOCC2)CC1` (centres unmarked) [Example 75], the figure is below 0.1 µM; as for `NC(Cc1cccc(Cl)c1)C1CCN(C(=O)N2CCCC2)CC1` (centres unmarked) [Example 76], below 0.1 µM.
